Laboratory results as given in patent publication US7348305B2, “Inhibitor of cardiac tachyarrhythmias” (Department of Veterans Affairs, Rehabilitation, priority 2003, dated 2008).
“Also recorded” adds a separate entry of the source. Read-outs that look alike come from different tables or passages of the source.

How the values were obtained:
proteasome [1] = assay: Proteasome chymotrypsin-like peptidase activity in myocardial tissue (RS, EBZ, INF) after injection; format: in vivo, dog; settings: 0.175 mg/kg, INF tissue 23-hr after LAD ligation, n=4, control tissues averaged 45 FU/100 μg protein/min
Protocol: (§1) Whole blood was measured at each time interval (FIGS. 29A and 29B), and ischemic myocardial tissue proteasome activity was measured at the final time interval (FIG. 30).
(§2) Proteasome activity: Activity was determined by proteasome chymotrypsin-like peptidase activity assay. Both cardiac (all groups) and whole blood cell (groups 4 and 5) proteasome activity was assayed. 30 mg frozen cardiac tissue was powdered in liquid nitrogen and sonicated in 0.5 ml buffer. Samples were then centrifuged for 30 min at 10,000 g at 4° C. and the supernatant was used for the assay. For preparing whole blood cell, heparinized blood was washed one time with saline and twice with cold PBS. The cells were lysed with EDTA (5 mM, pH 8.0) for 1 hr and centrifuged at 6600 g for 10 min at 4° C. and the supernatant was used for the assay. 0.4 mM Suc-Ala-Ala-Phe-MAC (Bachem California) was used as substrate. […] The time course for fluorescence was measured using a VICTOR3 Multilabel Counter (Perkin Elmer, Inc) at time 0 and every 5 min for 1 h to estimate the MAC liberated (excitation 380 nm, emission 460 nm). Slopes and intercepts were calculated using Microsoft Excel. Final results were expressed as fluorescence units/μg protein/min.

[2] = test system: ventricular tachyarrhythmias following LAD coronary artery ligation; assay: Model 1: two-stage LAD coronary artery ligation, Holter EKG monitoring 2-24 hr (ventricular triplets, sustained VT/VF, death); format: in vivo, dog; settings: for fastest ventricular triplet rate observed per hour after LAD ligation (FIG. 18, FIG. 32): 4 to 24 hr after LAD ligation; for mortality (dogs died of group): 24 hr after LAD ligation, etanercept 2 mg/kg at -24 and -1 hr, bortezomib 0.0875 mg/kg at -1 and +6 hr, anakinra 10 mg/kg at -1 and +12 hr, control 4 of 10, preliminary
Protocol: The two-stage ligation procedure results in a very low incidence of ventricular fibrillation (<5-10%) during the initial 6 hours following coronary artery occlusion (Harris et al., 1951). Almost all ventricular fibrillation occurs during the initial 30 minutes with a high proportion of successful defibrillation. Ambulatory EKG monitoring is performed over the 2-24 hr period following coronary artery ligation. During the 6-24 hr period, a 25-40% incidence of rapid monomorphic ventricular tachycardia (385±15/min) leading to ventricular fibrillation is observed at 13.3±0.8 hours post-LAD ligation (FIG. 1), with a mean duration of monomorphic ventricular tachycardia preceding ventricular fibrillation of 66±7 sec. When provocative ventricular pacing is performed at 24 hours, however, the reentrant substrate supporting sustained ventricular tachycardia is present in more than 80% of the surviving dogs with no difference in rate between spontaneous and pacing-induced sustained monomorphic ventricular tachycardias (FIG. 3).
In the 24-hr Infarct (Model 1) Studies, each control and etanercept pretreated animal was monitored for ventricular arrhythmias using a Holter 2-lead recording for the duration of time following LAD ligation. […] In the saline control group, 4 animals died at 11-24 hours post ligation. […]
Model 1: Electrophysiologic correlates of myocardial infarction over a 24-hr period. Eighteen 15-22 kg male mongrel dogs were anesthetized with IV sodium pentobarbital (30 mg/kg). A cuffed endotracheal tube was inserted and the animals were ventilated with room air using a volume-cycled respirator. […] The dogs were extubated and allowed to awaken in a temperature-controlled, humidified small animal post-operative recovery unit. They were given nalbuphine 0.2 mg/kg for post-operative analgesia. During the 2-24 hr period following LAD ligation, Holter monitoring was performed and the two-lead EKG was recorded on magnetic tape. Dogs were re-anesthetized with sodium pentobarbital at 24-hr. The thoracotomy was reopened and the heart was removed and perfused with ice-cold Tyrode's buffer via the left main coronary artery. The outer 0.5-1.5 mm EBZ tissue overlying the infarct was shaved and a longitudinal sample of tissue from the LAD region was stained with triphenyltetrazolium chloride (0.1%) to determine viability of the EBZ. Triphenyltetrazolium (TTZ) forms a brick-red precipitate in the presence of active intracellular dehydrogenases, delineating vital tissue. Non-viable tissues are not stained and remain a pale color. […] Tissue samples from the RS, the EBZ and the infarct tissue were dissected rapidly on an ice-cold surface, placed in freezer vials, and frozen in liquid nitrogen. These samples were then stored at −70° C. for later assay.
EKG Analysis: Full disclosure EKG records were obtained at 10 mm/sec for the entire 2-24 hour post-occlusion period. All measurements and calculations were made by direct visual observation and manual counting.
Anti-TNFα Treatment: A dosage of 2 mg/kg hTNFR:Fc (supplied as etanercept, Amgen, Inc, Thousand Oaks, Calif.) or saline were injected IV into a forepaw vein at 24-hr and again 1-hr prior to LAD ligation. […] This dosage was used after consultation with the pharmaceutical corporate pharmacology section and based on unpublished internal data that this dosage would provide maximal sequestration of tissue and circulating TNFα.

[3] = test system: β-adrenergic receptor kinase (βARK); assay: βARK immunoblot of EBZ tissue 24 hr after LAD ligation (Model 1); format: in vivo, dog; settings: bortezomib pretreated dog versus saline control, 24-hour infarct
Protocol: βARK immunoblots were used to estimate βARK expression (Yu et al., 2000).
Western Blot Analysis: Assessment of βARK content was conducted using standard SDS-PAGE and immunoblot techniques. Samples containing 100 μg of protein from myocardial extracts were electrophoresed using 10% SDS-PAGE and transferred to nitrocellulose membranes. The membrane was incubated with monoclonal anti-βARK (Upstate Biotechnology, Inc, Lake Placid, N.Y.), followed by exposure to peroxidase-linked anti-mouse IgG. Antibody binding was detected by a chemiluminescent method (ECL, Amersham Biosciences Corp, Piscataway, N.J.). Quantification of immunoreactive proteins was performed by densitometric scanning and with Image QuaNT software (Molecular Dynamics).
β-ARK, Proteasome and Ubiquitin Expression Assays: β-ARK, ubiquitinated β-ARK and proteasome in EBZ and RS tissues was determined by Western blot analysis. Samples were adjusted after protein concentration was assayed (BCA, Pierce Chemicals) to provide identical loads. 100 μg protein was combined with equal volume of SDS sample buffer, and electrophoresed on a 10% polyacrylamide gel. The blocked membranes were incubated with mouse anti β-ARK monoclonal antibody (Santa Cruz Biotechnology, Santa Cruz, Calif.) for 1-h at room temperature followed by anti-mouse IgG coupled to horseradish peroxidase and developed using an ECL western blotting kit (Amersham). The bands were scanned, stripped and reprobed with mouse anti-ubiquitin antibody (Santa Cruz Biotechnology, Santa Cruz, Calif.). The membrane was rescanned, stripped a second time and reprobed with rabbit anti-proteasome 20S C2 subunit polyclonal antibody (A.G. Scientific, Inc. CA). A separate control gel was included that was similarly treated, but reprobed with the identical Ab and band quality and density compared to the previous data obtained before stripping. Quantitation of immunoreactive bands was performed by densitometric scanning using ImageQuant software (Molecular Dynamics).

proteasome [4] = assay: Proteasome chymotrypsin-like peptidase activity in packed whole blood cells after injection; format: in vivo, dog; settings: 0.175 mg/kg, 1 hr before and 8 hr after LAD ligation; 1-24 hr after first injection; n=4
Protocol: as §1, §2

[5] = test system: ventricular tachyarrhythmias following LAD coronary artery ligation; settings: nadolol-treated dogs (Patterson et al., 1986), cited from earlier work
[6] = molecular target: β-adrenergic receptor / adenylate cyclase; settings: read-out: mean EC50, isoproterenol-AC activity, SEM, n=4
Protocol: FIG. 10 illustrates an isoproterenol-AC activity dose-response curve in EBZ and RS tissue obtained 24 hours after LAD ligation. Data are shown for 1 of 4 experiments. Each point is mean of duplicate samples.

[7] = molecular target: β-adrenergic receptors in epicardium; assay: Action potential shortening with isoproterenol in epicardium; set-up: species or system dog
Excerpt: This information is consistent with increased β-ARK-1 activity and decreased β-adrenergic receptor sensitivity in ventricular myocardium with chronic catecholamine administration or the converse, a decrease in β-ARK-1 with prolonged β-adrenergic receptor blockade (Pye et al., 2003).

For `CC(C)C[C@H](NC(=O)[C@H](Cc1ccccc1)NC(=O)c1cnccn1)B(O)O` [bortezomib], the “myocardial tissue proteasome activity 24-hr after first injection” value (proteasome [1]) was “decreased from control tissues”, the “fastest ventricular triplet rate observed per hour after LAD ligation (FIG. 18, FIG. 32)” value [2] was “marked decrease” and the “mortality (dogs died of group)” value [2] was 0 of 6. For the same molecule, the “very rapid (≧360 bpm) ventricular triplets versus control (FIG. 31B)” value ([2]; etanercept 2 mg/kg, bortezomib 0.0875 mg/kg) was “significant descrease; also recorded: no triplets in this range”, the “protection against loss of βARK (GRK2) protein in EBZ, Western immunoblot (FIG. 34)” value [3] was “marked protection against loss of βARK protein; also recorded: significant protection against loss of GRK2 expression” and the “packed whole blood proteasome activity after injection” value (proteasome [4]) was “significant decrease in proteasome activity”.

For “anakinra: interleukin-1 antagonist (IL-1 inhibitor)”, the “fastest ventricular triplet rate observed per hour after LAD ligation (FIG. 18, FIG. 32)” value [2] was “no significant difference between etancercept and anakinra”, the “mortality (dogs died of group)” value [2] was 1 of 7 and the “rapid (>300 bpm) ventricular triplets per hour versus control (FIG. 31A)” value ([2]; etanercept 2 mg/kg, bortezomib 0.0875 mg/kg, anakinra 10 mg/kg) was “relatively low until 8 hours after LAD and then rose rapidly”.

For `CC(C)(C)NCC(O)COc1cccc2c1CC(O)C(O)C2` (centres unmarked) [nadolol], the “incidence of sudden death, 2-24 hr after coronary artery ligation” value ([5]; FIG. 6) is given as “reduce the incidence of sudden death”, the “rate and number of rapid ventricular triplets, 2-24 hr after coronary artery ligation” value ([5]; FIGS. 7 and 8) is given as “reduce both the rate and number of rapid ventricular triplets” and the “incidence of pacing-induced sustained monomorphic reentrant tachycardia in surviving animals at 24 hours” value [5] is given as “without reducing the incidence”. The infarct mass [5] was “without altering infarct mass”.

With `CC(C)NCC(O)c1ccc(O)c(O)c1` (centres unmarked) [isoproterenol] the EC50 ([6]; EBZ tissue 24 hours after LAD ligation) was 18 ± 8.9 nM, the EC50 ([6]; RS tissue 24 hours after LAD ligation) was 73 ± 22 nM and the EC50 ([7]; control normal tissue) was 0.47 nM. The EC50 ([7]; remote site normal tissue, 24 hours post LAD ligation) was 14.3 nM.
